Assay results: patent publication US10905738B2, “Synthetic peptides, prodrugs, pharmaceutical compositions and uses” (Biozeus Desenvolvimento De Produtos Biofarmacêuticos, priority 2018, dated 2021)
Where a SMILES comes first, the peptide text is derived from it.

How the values were obtained:
[1] = test system: smooth muscle of tracheal rings; assay: spasmodic contraction of tracheal rings ex vivo (histamine-induced); parameters: species or system Dunkin-Hartley guinea pigs; conditions: for Effectiveness (Emax) (%): relaxation of tracheal rings contracted by histamine (50 μM); for Effectiveness (Emax) (%) / Potency (pEC50) Molar: mean±SEM; for Potency (pEC50) Molar: tracheal rings contracted by histamine (50 μM), peptides 0.01 to 10 μM
Protocol: The magnitude of the relaxing effect of the peptides was evaluated by means of a model of spasmodic contraction of tracheal rings ex vivo, largely employed to test new bronchodilating agents (see CULLUM, V. A., FARMER, J. B., JACK, D., LEVY, G. P. Salbutamol: a new, selective β-adrenoceptive receptor stimulant. British journal of pharmacology, 35(1): 141-151. 1969; KAO, C. H., CHU, Y. H., WANG, H. W. Effects of lidocaine on rat's isolated tracheal smooth muscle. European Archives of Oto-Rhino-Laryngology, 267(5): 817-820. 2010; SORIANO-URSÚA, M. A., VALENCIA-HERNÁNDEZ, I., ARELLANO-MENDOZA, M. G., CORREA-BASURTO, J., TRUJILLO-FERRARA, J. G. Synthesis, pharmacological and in silico evaluation of 1-(4-dihydroxy-3, 5-dioxa-4-borabycyclo [4.4.0] deca-7,9,11-trien-9-yl)-2-(tert-butylamine) ethanol, a compound designed to act as a β2 adrenoceptor agonist. European journal of medicinal chemistry, 44(7): 2840-2846. 2009).
For each test, Dunkin-Hartley guinea pigs (400-500 g) were euthanized in a CO2 atmosphere; subsequently, the trachea was exposed, removed and sectioned in segments of 1 to 3 cartilaginous tracheal rings. Each segment was transferred to an individual organ bath system containing Krebs nutritive solution (NaCl 118 mM; KCl […]; CaCl2) 2.5 mM; MgSO4 1.2 mM; KH2PO4 1.2 mM; NaHCO324 mM; glucose 11 mM) at 37° C., under constant aeration with a carbogenic mixture (95% of O2 and 5% of CO2). In each system, a stem fixed to the base of the container and another connected to an isometric transducer (GRASS FT-03) made up the support of the fragments. A data digitizing system connected to the isometric transducer allowed the recording of tension variations produced by the contraction of the tracheal rings (PowerLab™ 16/30, LabChart, version 8.1, AD Instruments, Australia). The basal tension was adjusted to 1 g, and subsequently, the contractility of the fragments was evaluated by a stimulus with carbachol (2.5 μM). After 1 h at rest, the basal tension was recovered and the tissues were subjected to contraction induced by histamine (50 μM) followed by exposure to increasing concentrations of the treatments (0.01 to 10 μM; n=8) or the comparator PnTx(19).
Table 1 lists the mean±SEM of the potency values, shown as the negative logarithm of the concentration that reduced the voltage to 50% of the maximum Histamine-induced contraction (pEC50), and efficacy (Emax), calculated from at least 8 independent tests using the sigmoid nonlinear regression equation of the software Graph Prism 5.0 (GraphPad Software, La Jolla, Ca, USA).

cavernosal strips = assay: relaxation induced by electric stimuli in cavernosal strips pre-contracted with phenylephrine ex vivo; parameters: species or system rats of Sprague Dawley (SD) lineage; conditions: peptides 10^−10 M; 10^−8 M; 10^−6 M; FIG. 3
Protocol: The relaxing potential of the peptides of the present invention on the smooth muscles of cavernous strips was evaluated ex vivo using tissue isolated from rats, a model that is largely used to test drug candidates for the treatment of ED (ITALIANO, G., CALABRÒ, A., PAGANO, F. A simplified in vitro preparation of the corpus cavernosum as a tool for investigating erectile pharmacology in the rat. Pharmacological research, 30(4): 325-334. 1994; GEMALMAZ, H., WALDECK, K., CHAPMAN, T. N., TUTTLE, J. B., STEERS, W. D., ANDERSSON, K E. In vivo and in vitro investigation of the effects of sildenafil on rat cavernous smooth muscle. The Journal of Urology, 165(3): 1010-1014.2001).
Male rats of Sprague Dawley (SD) lineage were sacrificed by guillotine; the penises were removed surgically and placed on a Petri dish containing Krebs—bicarbonate solution (NaCl 118.1 mM; KCl 4.7 mM; KH2PO4 1.0 mM; MgSO4 1.0 mM; NaHCO3 25.0 mM; CaCl2) 2.5 mM and Glucose 11.1 mM). The corpus cavernosum were dissected by removing the glans, urethra, spongeous body and dorsal vein, and then separated by cutting the fibrous septum between them. Cavernosal strips measuring 2×2×7 mm were mounted separately in a bath for isolated organs containing bicarbonate solution-Krebs (pH 7.4) at 37° C., aerated with 95% of O02 and 5% of CO2. The tissue was connected to a tension transducer and the changes in tension were continuously registered. The cavernosal strips were contracted with phenylephrine (10^−5 M) and subsequently relaxed by electrical stimulation at different frequencies (1 to 32 Hz). […] Differences in the percentage of relaxation between treatment and control were evaluated with regard to statistical significance by means of two-way variance analysis (Two-Way ANOVA) followed by Bonferroni post-test. For the comparison between the treatments and control in light of the stimulation in a single frequency, the results were evaluated by one-way analysis variance (One-Way ANOVA) followed by Bonferroni post-test. […]

Compound	relaxing effect on airway (tracheal ring) smooth muscle, in words ([1]; histamine-induced contraction ex vivo)	Effectiveness (Emax) (%) [1] [%]	Potency (pEC50) Molar [1] [Molar]	enhancing effect on relaxation induced by electric stimuli in strips of cavernous body contracted by phenylephrine (cavernosal strips)
CC[C@H](C)[C@H](NC(C)=O)C(=O)N[C@@H](C)C(=O)N[C@@H](Cc1c[nH]c2ccccc12)C(=O)N[C@@H](Cc1ccc(O)cc1)C(=O)N[C@@H](CCCCN)C(N)=O [SEQ ID NO: 24, Ac-Ile-Ala-Trp-Tyr-Lys-NH2] (Ac-IAWYK-NH2)	effective	29.0 ± 1.0	7.9 ± 0.3	enhancing effect
CC[C@H](C)[C@H](NC(=O)[C@H](Cc1c[nH]c2ccccc12)NC(=O)[C@H](Cc1ccccc1)NC(C)=O)C(=O)N[C@@H](C)C(=O)N[C@@H](Cc1c[nH]c2ccccc12)C(=O)N[C@@H](Cc1ccc(O)cc1)C(=O)N[C@@H](CCCCN)C(=O)N[C@@H](CC(C)C)C(=O)N[C@@H](C)C(N)=O [SEQ ID NO: 19, Ac-Phe-Trp-Ile-Ala-Trp-Tyr-Lys-Leu-Ala-NH2] (Ac-FWIAWYKLA-NH2)		40.0 ± 3.4	7.3 ± 0.4	enhancing effect
